The results in this text go back to PubChem BioAssay (NCI).

Some test systems named below: HOP-92 NSCLC; SF-268 CNS; CAKI-1 renal; NCI-H226 lung; UO-31 renal; T-47D breast; RXF 393 renal; MALME-3M melanoma; HS 578T breast; MDA-N.
Test in all cases: NCI tumour cell line growth inhibition, 48 h

Each structure is given as a SMILES string. Where “and” joins values, the source holds several entries; their conditions need not be identical. Equal values may be shown once.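 Method: 48-hour compound exposure of cells in 96-well plates, five concentrations, linear interpolation of endpoints. GI50 = concentration required for 50% inhibition of growth. Definition used: TGI = concentration required for complete inhibition of growth.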 Where a SMILES comes first, the peptide text is derived from it. The star is where a group is joined. Boc = CC(C)(C)OC(=O)* A value given as a limit tells only on which side of the number the result lay.

Turning to `O=C1c2ccccc2C(=O)c2c1ccc1c2N=C(c2ccc(F)cc2)CC(c2ccc(Cl)c(Cl)c2)N1` (stereo unspecified), the TGI with HOP-92 NSCLC came out at 90 µM; in the assay on SF-268 CNS it was 32.1 µM; with CAKI-1 renal, 17 µM; with NCI-H226 lung it was 65.6 µM; in the assay on UO-31 renal, 23.5 µM.

As for `C[C@@H]1C[C@]2(C[C@@H](C)[C@H]3C(C[C@@]4(C)CCC[C@@H]5C6=C[C@H](CCC34C)OC6=CC(=O)OC5(C)C)O2)OC1=O` (stereo partly specified), the TGI in the assay on HOP-92 NSCLC, with CAKI-1 renal and with UO-31 renal was greater than 51.5 µM each time.

With `CCOC(=O)c1c2c(n(-c3ccc(OC)cc3)c1C)C(=O)C(=O)c1ccccc1-2`, the TGI in the assay on HOP-92 NSCLC was determined as 3.98 µM; in the assay on SF-268 CNS, 3.76 µM; with T-47D breast it was 4.44 µM; with RXF 393 renal, 4.05 µM; with MALME-3M melanoma it was 0.605 µM; with CAKI-1 renal it was 2.82 µM. Moreover, the TGI with NCI-H226 lung was found to be 4.12 µM; in the assay on HS 578T breast it was 6.32 µM.

As for `COc1ccc(C[C@H](N)C(=O)N2C[C@H](CO)C[C@H](n3ccc(=O)[nH]c3=O)C2)cc1`, the TGI with HOP-92 NSCLC, in the assay with SF-268 CNS, with RXF 393 renal, in the assay with MALME-3M melanoma, with CAKI-1 renal and in the assay with NCI-H226 lung was greater than 100 µM in each case. Further, the TGI in the assay with UO-31 renal was greater than 100 µM.

With `COC(=O)C(Cc1c[nH]c2ccccc12)NC(=O)C(Cc1c[nH]c2ccccc12)NC(=O)C(Cc1c[nH]c2ccccc12)NC(=O)C(Cc1c[nH]c2ccccc12)NC(=O)OC(C)(C)C` (stereo unspecified) (Boc-WWWW-OMe; configuration not given here), the TGI with SF-268 CNS is greater than 100 µM; in the assay with T-47D breast it was greater than 100 µM; in the assay on MALME-3M melanoma, greater than 100 µM; in the assay on MDA-N, 55.3 µM; in the assay on CAKI-1 renal it was greater than 100 µM; in the assay with NCI-H226 lung it was greater than 100 µM. This compound also showed a TGI in the assay on UO-31 renal greater than 100 µM.

Turning to `C[C@H](CC[C@@H](O)C(C)(C)O)[C@H]1CC[C@@]2(C)[C@@H]3CC=C4[C@@H](CC[C@H](O)C4(C)C)[C@]3(C)C(=O)C[C@]12C`, the TGI in the assay on MALME-3M melanoma, in the assay with MDA-N, with NCI-H226 lung, in the assay on HS 578T breast and with UO-31 renal was greater than 50 µM each time.

Consider `CCOC(=O)c1c2c(n3ccc(NC(=O)OC(C)(C)C)cc13)C(=O)c1ncccc1C2=O`, for which the GI50 was 0.137 µM in the assay with HOP-92 NSCLC; 0.0713 µM with SF-268 CNS; 0.382 µM in the assay on T-47D breast; 0.0997 µM in the assay on MALME-3M melanoma; 0.0389 µM in the assay on CAKI-1 renal; 0.174 µM in the assay on NCI-H226 lung. Also, the GI50 with HS 578T breast is 1.21 µM; with UO-31 renal, 0.0153 µM. The TGI in the assay with HOP-92 NSCLC worked out at 0.927 µM; in the assay with SF-268 CNS, 1.91 µM; in the assay on T-47D breast, 5.31 µM; with MALME-3M melanoma it was 1.27 µM; in the assay with CAKI-1 renal, 1.58 µM; in the assay on NCI-H226 lung, 0.757 µM. The TGI came to 4.65 µM with HS 578T breast and 0.397 µM with UO-31 renal.

`O=C1CCCC2=C1C(c1ccc3c(c1)OCO3)Nc1ccc3ccccc3c12` (stereo unspecified): the TGI in the assay on SF-268 CNS, in the assay with RXF 393 renal, in the assay with MALME-3M melanoma, with MDA-N, in the assay with CAKI-1 renal and with NCI-H226 lung was greater than 100 µM throughout. The TGI in the assay on HS 578T breast and in the assay with UO-31 renal was greater than 100 µM throughout.

On to `COC(=O)c1nc(-c2ccc3c(n2)C(=O)C(N)=C(OC)C3=O)c(N)c(-c2ccc(OC)c(OC)c2O)c1C`, for which the TGI in the assay with HOP-92 NSCLC was 5.79 µM; with SF-268 CNS, 5.25 µM; with RXF 393 renal, 3.55 µM; with MALME-3M melanoma it was 1.74 µM; in the assay with CAKI-1 renal, 3.28 µM; in the assay on NCI-H226 lung, 1.41 µM. Moreover, in the assay with UO-31 renal, the TGI was 2.46 µM.

For `CN(C)CCCNc1c2ccccc2nc2cccc([N+](=O)[O-])c12`, the TGI in the assay with HOP-92 NSCLC was 0.00435 µM; in the assay with SF-268 CNS it was 0.00943 µM and 0.0426 µM; in the assay on MALME-3M melanoma it was 0.00221 µM and 0.0136 µM; in the assay on MDA-N it was 0.00246 µM; with NCI-H226 lung it was 0.0589 µM and 0.0601 µM; in the assay with HS 578T breast it was 0.0148 µM. In addition, in the assay on UO-31 renal, the TGI is 0.0107 µM and 0.0363 µM. Moreover, the GI50 was less than 0.001 µM with CAKI-1 renal, 0.0196 µM with NCI-H226 lung and less than 0.001 µM in the assay on UO-31 renal.

As for `COc1ccc(C[C@H](N)C(=O)N2C[C@H](CO)C[C@H](n3cnc4c(N(C)C)ncnc43)C2)cc1`, the TGI in the assay on HOP-92 NSCLC, in the assay on SF-268 CNS, in the assay with RXF 393 renal, in the assay on MALME-3M melanoma, in the assay on CAKI-1 renal and with NCI-H226 lung was greater than 100 µM throughout. In addition, the TGI in the assay on UO-31 renal is greater than 100 µM.

Take `CC(C)(C)OC(=O)NC(Cc1ccc(O)cn1)C(N)=O` (stereo unspecified): the TGI in the assay with HOP-92 NSCLC, with SF-268 CNS, in the assay with RXF 393 renal, in the assay with MALME-3M melanoma, in the assay with MDA-N and with CAKI-1 renal was greater than 100 µM in each case. The TGI in the assay with NCI-H226 lung, in the assay with HS 578T breast and in the assay on UO-31 renal was greater than 100 µM in each case.

Consider `COc1ccccc1NC(=S)N/N=C(/C)c1ccccn1`, for which the TGI in the assay on HOP-92 NSCLC was greater than 100 µM; with RXF 393 renal, 23.4 µM; in the assay on MALME-3M melanoma, 16.7 µM; in the assay on MDA-N, greater than 100 µM; with CAKI-1 renal it was greater than 100 µM; with HS 578T breast, greater than 100 µM. Also, the TGI with UO-31 renal was greater than 83.4 µM.

Take `O=c1[nH]c(=O)n(COCc2ccccc2)c2ccc([N+](=O)[O-])cc12`: the TGI with HOP-92 NSCLC, in the assay on RXF 393 renal, in the assay on MDA-N, in the assay with CAKI-1 renal, in the assay on NCI-H226 lung and in the assay on UO-31 renal was greater than 100 µM throughout.

In the case of `CCNC(=O)/C=C/CCC#Cc1ccc(-c2ccc(-c3cccs3)s2)s1`, the TGI with HOP-92 NSCLC, with SF-268 CNS, in the assay with RXF 393 renal, in the assay with MALME-3M melanoma, in the assay on CAKI-1 renal and with NCI-H226 lung was greater than 100 µM each time. In the assay with UO-31 renal, this compound yielded a TGI greater than 100 µM.

As to `C=C(CC(=O)Nc1ccc(C(=O)OC)o1)C(=O)OC`, the TGI is greater than 100 µM in the assay with HOP-92 NSCLC; greater than 100 µM in the assay on SF-268 CNS; 54.8 µM in the assay with T-47D breast; 33.3 µM in the assay on RXF 393 renal; 39.3 µM in the assay on MALME-3M melanoma; 41.9 µM with CAKI-1 renal. Also, the results for the TGI in the assay on NCI-H226 lung, in the assay on HS 578T breast and with UO-31 renal were 66.8 µM, greater than 100 µM and 39.5 µM, respectively.
